Data as given in patent US9157906B2, “Phosphodiesterase activity and regulation of phosphodiesterase 1B-mediated signaling in brain” (THE ROCKEFELLER UNIVERSITY, priority 2001, dated 2015).
Where a name gives a salt, the structure may show the parent alone.

How the values were obtained:
[1] = system: DARPP-32 at Thr34; test: Phosphorylation of DARPP-32 at Thr34 in striatal slices, immunoblot with phosphorylation state-specific antibodies; assay type: cell-based, mouse; conditions: for increase in levels of phospho-Thr34 DARPP-32 and phospho-Ser845 GluR1: forskolin (10, unit not given)
Description: (§1) Male PDE1B−/− (null) and WT mice (8-12 weeks of age) were decapitated. The brain was transferred rapidly to an ice-cold surface, blocked, and fixed to the cutting surface of a Vibratome (Ted Pella, Redding, Calif.) maintained at 4° C. The brain was submersed in cold, oxygenated (95% O2/5% CO2) Krebs' bicarbonate buffer of the following composition (in mM): 125 NaCl, 5KCl, 26 NaHCO3, 1.5 CaCl2, 1.5 MgSO4, and 10 glucose, pH 7.4. Coronal mouse brain sections (400 μm in thickness) were cut and pooled in cold buffer. Striatal or nucleus accumbens slices were cut from the coronal sections under a dissecting microscope. Individual slices were preincubated in fresh buffer for 15 min at 30° C.; the buffer was replaced, and preincubation continued for an additional 30 min. […] Slices were frozen immediately in liquid nitrogen and stored at −80° C. until assayed.
Frozen slices were sonicated in homogenization buffer containing 1% SDS. Small aliquots of the homogenate were retained for protein determination by standard assays using bovine serum albumin as the standard. Equal amounts of protein (50 μg) were loaded onto 10% acrylamide gels, separated by SDS/PAGE, and transferred to nitrocellulose membranes by a method described by Tobin et al. (1979. Proc. Natl. Acad. Sci, USA 76:4350-4354). […]
(§2) Chemiluminescence was detected by autoradiography and bands were quantified by analysis of scanned images using NIH Image 1.52 software. Because the linear range for quantitation of ECL signals by densitometry is limited, several film exposures were obtained for each set of samples to insure that the signals were within a density range that allowed for accurate quantitation. […]

[2] = system: GluR1 AMPA receptor at Ser845; test: Phosphorylation of GluR1 AMPA receptor at Ser845 in striatal slices, immunoblot with phosphorylation state-specific antibodies; assay type: cell-based, mouse; conditions: striatal slices of PDE1B null mice; 10 μM, 10 minutes
Description: as §1
Frozen slices were sonicated in homogenization buffer containing 1% SDS. […]
as §2

[3] = system: D1-mediated phosphorylation; test: D1-mediated phosphorylation in nucleus accumbens slices; assay type: cell-based, mouse; conditions: D1 receptor agonist
Description: Male PDE1B−/− (null) and WT mice (8-12 weeks of age) were decapitated. The brain was transferred rapidly to an ice-cold surface, blocked, and fixed to the cutting surface of a Vibratome (Ted Pella, Redding, Calif.) maintained at 4° C. The brain was submersed in cold, oxygenated (95% O2/5% CO2) Krebs' bicarbonate buffer of the following composition (in mM): 125 NaCl, 5KCl, 26 NaHCO3, 1.5 CaCl2, 1.5 MgSO4, and 10 glucose, pH 7.4. Coronal mouse brain sections (400 μm in thickness) were cut and pooled in cold buffer. Striatal or nucleus accumbens slices were cut from the coronal sections under a dissecting microscope. Individual slices were preincubated in fresh buffer for 15 min at 30° C.; the buffer was replaced, and preincubation continued for an additional 30 min. At the end of this second preincubation period the buffer was replaced with Krebs' buffer or buffer containing test substances for 5 min. Slices were frozen immediately in liquid nitrogen and stored at −80° C. until assayed. […]
as §2

[4] = system: PDE1B null mice; test: Methamphetamine-stimulated horizontal locomotor activity (Digiscan apparatus); conditions: 1 mg/kg subcutaneous

## Oc1cc2c(c(Cl)c1O)CCNCC2c1ccccc1 (stereo not drawn) [SKF81297]
[1]; striatal slices of PDE1B null mice, 10 μM, 10 minutes
  increase for phospho-Thr34 as compared to controls: 15 fold
[2]
  increase for phospho-Ser845 as compared to controls: 13 fold
[3]
  D1-mediated phosphorylation in PDE1B null mice as compared to wild-type mice: enhanced

## CN[C@@H](C)Cc1ccccc1 [methamphetamine, d-methamphetamine hydrochloride]
[4]
  duration of stimulated hyperactivity response after treatment: 90 min

## C=C[C@@]1(C)CC(=O)[C@]2(O)[C@@]3(C)[C@@H](O)CCC(C)(C)[C@@H]3[C@H](O)[C@H](OC(C)=O)[C@@]2(C)O1 [Forskolin]
[1]; striatal slices from PDE1B null mice
  increase in levels of phospho-Thr34 DARPP-32 and phospho-Ser845 GluR1: 65 fold
[1]; striatal slices from wild-type mice
  increase in levels of phospho-Thr34 DARPP-32 and phospho-Ser845 GluR1: 21 fold
